One assay deals with 5-HT2A (Homo sapiens, UniProt P28223). The experiment in a line: IPOne (IP1 HTRF) assay, CHO-K1 cells expressing human 5-HT2A. Further details: expressed in transfected cells; host or cells: CHO-K1. The assay is classed as cell-based. Conditions: for activation at 0.3 µM / activation at 30 µM: CHO-K1, percentage of reference agonist α-Me-5-HT at its EC100; for EC50: CHO-K1, human 5-HT2A. On the procedure:
(§1) IPOne assays were performed using stably-transfected cell lines (CHO-K1) expressing human 5-HT2A or 5-HT2B receptors. Upon activation of these receptors, Gq-mediated myo-Inositol 1 phosphate (IP1) production is detected by a Homogeneous Time-Resolved Fluorescence (HTRF) competitive immunoassay, whereby an IP1 analog coupled to a fluorophore (acceptor) competes with endogenous IP1 for binding to a labeled anti-IP1 antibody (donor). The resulting signal is inversely proportional to the concentration of IP1 in the sample. Cells were incubated with an IP1 inhibitor (to prevent degradation and allow detection) and either reference compound or test compound. α-Me-5-HT was used as the assay reference agonist. Activation of 5-HT2A or 5-HT2B receptors was measured via accumulation of IP1 detected by HTRF. Agonist activity of test compounds was expressed as a percentage of the activity of the reference agonist at its EC100 concentration.
In general terms: Time-resolved FRET reads energy transfer from a long-lived donor to a nearby acceptor.

A further assay deals with 5-HT2B (Homo sapiens, UniProt P41595). Description: IPOne (IP1 HTRF) assay, CHO-K1 cells expressing human 5-HT2B. More on the design: expressed in transfected cells; host or cells: CHO-K1. The assay is classed as cell-based. Conditions: for activation at 0.3 µM / activation at 30 µM: CHO-K1, percentage of reference agonist α-Me-5-HT at its EC100; for EC50: CHO-K1, human 5-HT2B. On the procedure: as §1
Chain of 5-HT2B (P41595 whole entry): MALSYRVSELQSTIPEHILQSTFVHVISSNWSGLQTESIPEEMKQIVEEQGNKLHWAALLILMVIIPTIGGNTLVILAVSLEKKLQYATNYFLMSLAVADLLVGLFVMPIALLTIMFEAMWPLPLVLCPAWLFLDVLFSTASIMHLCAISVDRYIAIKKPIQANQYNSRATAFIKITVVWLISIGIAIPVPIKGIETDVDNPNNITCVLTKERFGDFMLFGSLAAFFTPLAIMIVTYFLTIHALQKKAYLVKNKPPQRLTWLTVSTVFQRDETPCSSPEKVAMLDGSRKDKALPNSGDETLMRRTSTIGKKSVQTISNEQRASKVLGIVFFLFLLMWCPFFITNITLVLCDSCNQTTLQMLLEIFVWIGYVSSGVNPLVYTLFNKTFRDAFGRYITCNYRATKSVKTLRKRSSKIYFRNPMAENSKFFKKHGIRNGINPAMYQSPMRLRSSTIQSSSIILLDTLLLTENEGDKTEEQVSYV

Consider 26 compounds from patent US20240116896A1 (ATAI Life Sciences AG, priority 2022, published 2024).

Chain of 5-HT2A (P28223 whole entry): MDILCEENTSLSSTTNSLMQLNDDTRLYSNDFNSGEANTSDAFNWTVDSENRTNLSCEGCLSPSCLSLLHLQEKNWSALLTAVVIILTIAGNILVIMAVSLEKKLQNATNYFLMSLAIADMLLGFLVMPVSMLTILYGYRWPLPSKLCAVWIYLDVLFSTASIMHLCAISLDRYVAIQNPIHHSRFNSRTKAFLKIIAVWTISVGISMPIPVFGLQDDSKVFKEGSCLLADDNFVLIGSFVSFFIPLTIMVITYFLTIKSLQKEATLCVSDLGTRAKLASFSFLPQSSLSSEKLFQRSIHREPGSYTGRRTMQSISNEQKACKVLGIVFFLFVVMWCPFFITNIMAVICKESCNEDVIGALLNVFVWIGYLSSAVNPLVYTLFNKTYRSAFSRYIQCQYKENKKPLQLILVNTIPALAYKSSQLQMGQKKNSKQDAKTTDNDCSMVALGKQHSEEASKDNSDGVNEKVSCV

As to `OCC1CCCN1CCc1c(Br)[nH]c2ccc(F)cc12` (centres unmarked) [Compound 69, (1-(2-(2-bromo-5-fluoro-1H-indol-3-yl)ethyl)pyrrolidin-2-yl)methanol], the activation at 0.3 µM at 5-HT2A came out at 15.1%; on 5-HT2B, 27.6%. Also, the values for the activation at 30 µM on 5-HT2A and on 5-HT2B were 83.8% and 90.5%, respectively.
Take `NCC1CCCN1CCc1c[nH]c2ccccc12` (centres unmarked) [Compound 22]: at 5-HT2A, the activation at 0.3 µM is 10.2% and the activation at 30 µM was 99%. Further, on 5-HT2B, the activation at 0.3 µM stood at 20% and the activation at 30 µM turned out to be 99.6%.
As to `COc1cccc2[nH]cc(CCN3CCC[C@H]3CO)c12` [Compound 48, (S)-(1-(2-(4-methoxy-1H-indol-3-yl)ethyl)pyrrolidin-2-yl)methanol], on 5-HT2A, it took 11.2 nM to reach a half-maximal effect (EC50), the activation at 0.3 µM worked out at 83.2% and the activation at 30 µM was 90.9%. Also, on 5-HT2B, it took 22.2 nM to reach a half-maximal effect (EC50), the activation at 0.3 µM amounted to 62% and the activation at 30 µM stood at 83.4%.
Turning to `OC[C@@H]1CCCN1CCc1c[nH]c2cccc(O)c12` [Compound 49, (S)-3-(2-(2-(hydroxymethyl)pyrrolidin-1-yl)ethyl)-1H-indol-4-ol], at 5-HT2A, the EC50 – broadly, the concentration that produces a half-maximal response – was 22.5 nM; the activation at 0.3 µM is 99.2%; the activation at 30 µM is 100%. On 5-HT2B, the midpoint of the response, the EC50, lay at 43.2 nM; the activation at 0.3 µM turned out to be 92%; the activation at 30 µM was 99.1%.
With `OCC1CCCN1CCc1c(Cl)[nH]c2ccc(F)cc12` (centres unmarked) [Compound 70, (1-(2-(2-chloro-5-fluoro-1H-indol-3-yl)ethyl)pyrrolidin-2-yl)methanol], on 5-HT2A, the activation at 0.3 µM amounted to 61% and the activation at 30 µM came to 97.7%. Moreover, at 5-HT2B, the activation at 0.3 µM was found to be 55.1% and the activation at 30 µM stood at 99.8%.
Taken in the same sequence, the figures for `COC(=O)[C@]1(C)CCCN1CCc1c[nH]c2ccccc12` [Compound 92, methyl (S)-1-(2-(1H-indol-3-yl)ethyl)-2-methylpyrrolidine-2-carboxylate] were -16.3%, -6.28%, -2.23% and 15.4%.
Turning to `COC(=O)[C@@H]1CCCN1CCc1c[nH]c2ncccc12` [Compound 94, methyl (2-(1H-pyrrolo[2,3-b]pyridin-3-yl)ethyl)-L-prolinate], on 5-HT2A, the activation at 0.3 µM is 0.14% and the activation at 30 µM was 54.3%. Moreover, on 5-HT2B, the activation at 0.3 µM is -0.22% and the activation at 30 µM turned out to be 2.48%.
As to `OC[C@@H]1CCCN1CCc1c[nH]c2ccc(O)cc12` [Compound 51], at 5-HT2A, the response was half-maximal at 45.6 nM (EC50), the activation at 0.3 µM was found to be 99% and the activation at 30 µM worked out at 101%. On 5-HT2B, the EC50 was 86.7 nM, the activation at 0.3 µM was 85.7% and the activation at 30 µM was 99.1%.
With `COC(=O)[C@H]1CCCN1CCc1c[nH]c2ccccc12` [Compound 34, methyl (2-(1H-indol-3-yl)ethyl)-D-prolinate], on 5-HT2A, the activation at 0.3 µM was 4.6% and the activation at 30 µM was determined as 29.9%. On 5-HT2B, the activation at 0.3 µM came out at 1.34% and the activation at 30 µM worked out at 35.1%.
Taken in the same sequence, the figures for `C[C@@]1(CO)CCCN1CCc1c[nH]c2ccccc12` [Compound 93, (S)-(1-(2-(1H-indol-3-yl)ethyl)-2-methylpyrrolidin-2-yl)methanol] were -11.3%, 1.82%, -0.54% and 25.6%.
On the same counts, the results for `OC[C@H]1CCN1CCc1c[nH]c2ccccc12` [Compound 53, (R)-(1-(2-(1H-indol-3-yl)ethyl)azetidin-2-yl)methanol] are 3.07%, 70.7%, 16.3% and 74.7%.
For `COc1ccc2[nH]cc(CCN3CCCC3CO)c2c1` (centres unmarked) [Compound 30], at 5-HT2A, the activation at 0.3 µM was 97.8% and the activation at 30 µM was 100%. Further, at 5-HT2B, the activation at 0.3 µM is 89.4% and the activation at 30 µM was 98.8%.
`COC(=O)[C@@H]1CCCN1CCc1c[nH]c2ccccc12` [Compound 33, methyl (2-(1H-indol-3-yl)ethyl)-L-prolinate]: on 5-HT2A, the EC50 came to 806 nM, the activation at 0.3 µM is 44% and the activation at 30 µM was 94.4%. For the same compound, at 5-HT2B, the EC50 worked out at 456 nM, the activation at 0.3 µM was found to be 33.9% and the activation at 30 µM came out at 91.3%.
As to `OC1CCN(CCc2c[nH]c3ccccc23)C1` (centres unmarked) [Compound 7, 1-(2-(1H-indol-3-yl)ethyl)pyrrolidin-3-ol], on 5-HT2A, the activation at 0.3 µM is 7.01% and the activation at 30 µM was found to be 42%. Further, at 5-HT2B, the activation at 0.3 µM is 5.71% and the activation at 30 µM came out at 28.7%.
With `OC[C@@H]1CCCN1CCc1c[nH]c2ccc(F)cc12` [Compound 59, (S)-(1-(2-(5-fluoro-1H-indol-3-yl)ethyl)pyrrolidin-2-yl)methanol], at 5-HT2A, the response was half-maximal at 7.7 nM (EC50), the activation at 0.3 µM turned out to be 86.3% and the activation at 30 µM worked out at 89.4%. In addition, at 5-HT2B, the EC50 amounted to 8.9 nM, the activation at 0.3 µM worked out at 79.8% and the activation at 30 µM was 85.7%.
In the case of `COc1ccc2[nH]cc(CCN3CCC[C@H]3CO)c2c1` [Compound 50], at 5-HT2A, the EC50 was 12.5 nM, the activation at 0.3 µM is 100% and the activation at 30 µM was 103%. For the same compound, at 5-HT2B, the EC50 was determined as 8.8 nM, the activation at 0.3 µM is 101% and the activation at 30 µM was found to be 101%.
Turning to `CC(C)OC(=O)[C@@H]1CCCN1CCc1c[nH]c2ccccc12` [Compound 55, isopropyl (2-(1H-indol-3-yl)ethyl)-L-prolinate], at 5-HT2A, the EC50 was 358 nM, the activation at 0.3 µM stood at 68.1% and the activation at 30 µM came to 101%. Besides, on 5-HT2B, the EC50 stood at 1040 nM, the activation at 0.3 µM came to 37.7% and the activation at 30 µM was found to be 102%.
Turning to `OC[C@@H]1CCCN1CCc1c[nH]c2ncccc12` [Compound 95, (S)-(1-(2-(1H-pyrrolo[2,3-b]pyridin-3-yl)ethyl)pyrrolidin-2-yl)methanol], the activation at 0.3 µM at 5-HT2A was determined as 0.81%; on 5-HT2B, 1.09%. Also, the activation at 30 µM turned out to be 84.3% at 5-HT2A and 9.66% at 5-HT2B.
On the same counts, the results for `OC[C@@H]1CCCN1CCc1c(Br)[nH]c2ccccc12` [Compound 57, (S)-(1-(2-(2-bromo-1H-indol-3-yl)ethyl)pyrrolidin-2-yl)methanol] are 4.69%, -1.03%, 30.9% and 73%.
For `COc1ccc2[nH]c(Br)c(CCN3CCCC3CO)c2c1` (centres unmarked) [Compound 72, (1-(2-(2-bromo-5-methoxy-1H-indol-3-yl)ethyl)pyrrolidin-2-yl)methanol], on 5-HT2A, the activation at 0.3 µM was 5.63% and the activation at 30 µM came out at 37.6%. Besides, at 5-HT2B, the activation at 0.3 µM was 13.5% and the activation at 30 µM was 41.7%.
`CCOC(=O)[C@@H]1CCCN1CCc1c[nH]c2ccccc12` [Compound 52, ethyl (2-(1H-indol-3-yl)ethyl)-L-prolinate]: on 5-HT2A, the EC50 was found to be 888 nM, the activation at 0.3 µM stood at 24% and the activation at 30 µM came out at 101%. For the same compound, at 5-HT2B, the EC50 was found to be 2560 nM, the activation at 0.3 µM was found to be 25.4% and the activation at 30 µM was 99.2%.
Turning to `OC[C@@H]1CCCN1CCc1c[nH]c2ccccc12` [Compound 31, (S)-(1-(2-(1H-indol-3-yl)ethyl)pyrrolidin-2-yl)methanol], at 5-HT2A, the EC50 was determined as 62.1 nM, the activation at 0.3 µM worked out at 76.5% and the activation at 30 µM was 99.5%. Besides, at 5-HT2B, the EC50 is 126 nM, the activation at 0.3 µM was 54.6% and the activation at 30 µM is 97%.
For `OCC1CCCN1CCc1c[nH]c2cccc(O)c12` (centres unmarked) [Compound 29, 3-(2-(2-(hydroxymethyl)pyrrolidin-1-yl)ethyl)-1H-indol-4-ol], on 5-HT2A, the activation at 0.3 µM came to 99.4% and the activation at 30 µM came out at 99.2%. For the same compound, at 5-HT2B, the activation at 0.3 µM is 90.8% and the activation at 30 µM was determined as 96.4%.
Turning to `COc1ccc(Br)c2[nH]cc(CCN3CCCC3CO)c12` (centres unmarked) [Compound 42, (1-(2-(7-bromo-4-methoxy-1H-indol-3-yl)ethyl)pyrrolidin-2-yl)methanol], on 5-HT2A, the activation at 0.3 µM was found to be 78.5% and the activation at 30 µM worked out at 94.1%. In addition, at 5-HT2B, the activation at 0.3 µM is 22% and the activation at 30 µM was found to be 46.2%.
Take `CC[C@H](O)[C@@H]1CCCN1CCc1c[nH]c2ccccc12` [Compound 78, (S)-1-((S)-1-(2-(1H-indol-3-yl)ethyl)pyrrolidin-2-yl)propan-1-ol]: at 5-HT2A, the activation at 0.3 µM came out at 1.39% and the activation at 30 µM is 64.3%. For the same compound, on 5-HT2B, the activation at 0.3 µM was found to be 5.16% and the activation at 30 µM worked out at 82.2%.
For `OC[C@H]1CCCN1CCc1c[nH]c2ccccc12` [Compound 32, (R)-(1-(2-(1H-indol-3-yl)ethyl)pyrrolidin-2-yl)methanol], at 5-HT2A, the activation at 0.3 µM was found to be 7.16% and the activation at 30 µM is 42.1%. For the same compound, at 5-HT2B, the activation at 0.3 µM was 4.28% and the activation at 30 µM is 33.9%.
